Measurements from patent US20250230193A1, “CYCLIC COMPOUND HAVING SELECTIVE KRAS INHIBITORY EFFECT ON HRAS AND NRAS” (CHUGAI SEIYAKU KABUSHIKI KAISHA, priority 2022, published 2025).

What was measured:
[1] = target: GDP-bound HRAS wild-type protein (Homo sapiens, UniProt P01112); assay: Binding to HRAS by surface plasmon resonance (SPR), Single Cycle Kinetics; settings: KD ratio HRAS/KRAS, class symbols
[2] = target: GDP-bound NRAS wild-type protein (Homo sapiens, UniProt P01111); assay: Binding to NRAS by surface plasmon resonance (SPR), Single Cycle Kinetics; settings: KD ratio NRAS/KRAS, class symbols
Sequence of GDP-bound NRAS wild-type protein (P01111 whole entry): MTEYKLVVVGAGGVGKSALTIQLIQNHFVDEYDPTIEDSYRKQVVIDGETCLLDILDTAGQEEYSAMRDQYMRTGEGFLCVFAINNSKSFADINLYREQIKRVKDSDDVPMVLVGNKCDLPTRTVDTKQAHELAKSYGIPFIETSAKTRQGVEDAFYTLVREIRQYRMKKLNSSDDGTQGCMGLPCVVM

Sequence of GDP-bound HRAS wild-type protein (P01112 whole entry): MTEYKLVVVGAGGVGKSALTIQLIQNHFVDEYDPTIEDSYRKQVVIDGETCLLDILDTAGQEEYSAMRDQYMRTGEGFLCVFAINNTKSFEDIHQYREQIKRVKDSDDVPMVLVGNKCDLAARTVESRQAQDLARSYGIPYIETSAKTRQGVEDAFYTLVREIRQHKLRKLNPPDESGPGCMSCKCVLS

Structure (SMILES)	HRAS/KRAS (ratio of KD value with respect to GDP-bound HRAS wild-type protein to KD value with respect to KRAS) [1]	NRAS/KRAS (ratio of KD value with respect to GDP-bound NRAS wild-type protein to KD value with respect to KRAS) [2]
CCC[C@H]1C(=O)N[C@@H]([C@@H](C)CC)C(=O)N2CCC[C@H]2C(=O)N(C)[C@H]2C/C=C\CCN(C2=O)[C@@H](Cc2ccc(C)cc2)C(=O)N(C)CC(=O)N[C@@H](CCc2ccc(Cl)c(Cl)c2)C(=O)N2C[C@H](OC(C)C)C[C@H]2C(=O)NC2(CC(C)(C)C2)C(=O)N(C)[C@@H](C(CC)CC)C(=O)N(C)[C@H](C(=O)N(C)C)CC(=O)N1C [PP2641]	A (a compound having 10 or more and less than 20 is denoted as A)	AA (a compound having 20 or more is denoted as AA)
CCC(CC)[C@H]1C(=O)N(C)[C@H](C(=O)N(C)C)CC(=O)N(C)[C@@H](COC)C(=O)N[C@@H]([C@@H](C)CC)C(=O)N(C)CC(=O)N(C)[C@H]2C/C=C\CCN(C2=O)[C@@H](Cc2ccc(C(F)(F)F)cc2)C(=O)N(C)CC(=O)N[C@@H](CCc2ccc(Cl)c(Cl)c2)C(=O)N2C[C@H](OC3CCC3)C[C@H]2C(=O)NC2(CC(C)(C)C2)C(=O)N1C [PP2642]	A (a compound having 10 or more and less than 20 is denoted as A)	AA (a compound having 20 or more is denoted as AA)
CCC[C@H]1C(=O)N[C@@H]([C@@H](C)CC)C(=O)N(C)CC(=O)N(C)[C@H]2C/C=C\CCN(C2=O)[C@@H](Cc2ccc(C(F)F)cc2)C(=O)N(C)CC(=O)N[C@@H](CCc2ccc(Cl)c(Cl)c2)C(=O)N2C[C@H](OC3CCC3)C[C@H]2C(=O)NC2(CC(C)(C)C2)C(=O)N(C)[C@@H](C(CC)CC)C(=O)N(C)[C@H](C(=O)N(C)C)CC(=O)N1C [PP2643]	A (a compound having 10 or more and less than 20 is denoted as A)	AA (a compound having 20 or more is denoted as AA)
CCC[C@H]1C(=O)N[C@@H]([C@@H](C)CC)C(=O)N(C)CC(=O)N(C)[C@H]2C/C=C\CCN(C2=O)[C@@H](Cc2ccc(C)cc2)C(=O)N(C)CC(=O)N[C@@H](CCc2ccc(Cl)c(Cl)c2)C(=O)N2C[C@H](OC3CCC3)C[C@H]2C(=O)NC2(CC(C)(C)C2)C(=O)N(C)[C@@H](C(CC)CC)C(=O)N(C)[C@H](C(=O)N(C)C)CC(=O)N1C [PP2644]	A (a compound having 10 or more and less than 20 is denoted as A)	AA (a compound having 20 or more is denoted as AA)
CCC(CC)[C@H]1C(=O)N(C)[C@H](C(=O)N(C)C)CC(=O)N(C)[C@@H](COC)C(=O)N[C@@H]([C@@H](C)CC)C(=O)N2CCC[C@H]2C(=O)N(C)[C@H]2C/C=C\CCN(C2=O)[C@@H](Cc2ccc(C(F)(F)F)cc2)C(=O)N(C)CC(=O)N[C@@H](CCc2ccc(Cl)c(Cl)c2)C(=O)N2C[C@H](OC3CCC3)C[C@H]2C(=O)NC2(CC(C)(C)C2)C(=O)N1C [PP2645]	A (a compound having 10 or more and less than 20 is denoted as A)	AA (a compound having 20 or more is denoted as AA)
CCC[C@H]1C(=O)N[C@@H]([C@@H](C)CC)C(=O)N2CCC[C@H]2C(=O)N(C)[C@H]2C/C=C\CCN(C2=O)[C@@H](Cc2ccc(C(F)F)cc2)C(=O)N(C)CC(=O)N[C@@H](CCc2ccc(Cl)c(Cl)c2)C(=O)N2C[C@H](OC3CCC3)C[C@H]2C(=O)NC2(CC(C)(C)C2)C(=O)N(C)[C@@H](C(CC)CC)C(=O)N(C)[C@H](C(=O)N(C)C)CC(=O)N1C [PP2646]	A (a compound having 10 or more and less than 20 is denoted as A)	AA (a compound having 20 or more is denoted as AA)
CCC(CC)[C@H]1C(=O)N(C)[C@H](C(=O)N(C)C)CC(=O)N(C)[C@@H](COC)C(=O)N[C@@H]([C@@H](C)CC)C(=O)N(C)CC(=O)N(C)[C@H]2C/C=C\CCN(C2=O)[C@@H](Cc2ccc(C(F)(F)F)cc2)C(=O)N(C)CC(=O)N[C@@H](CCc2ccc(Cl)c(Cl)c2)C(=O)N2C[C@H](OC3CCCC3)C[C@H]2C(=O)NC2(CC(C)(C)C2)C(=O)N1C [PP2648]	A (a compound having 10 or more and less than 20 is denoted as A)	A (a compound having 10 or more and less than 20 is denoted as A)
CCC(CC)[C@H]1C(=O)N(C)[C@H](C(=O)N(C)C)CC(=O)N(C)[C@@H](COC)C(=O)N[C@@H]([C@@H](C)CC)C(=O)N(C)CC(=O)N(C)[C@H]2C/C=C\CCN(C2=O)[C@@H](Cc2ccc(C(F)F)cc2)C(=O)N(C)CC(=O)N[C@@H](CCc2ccc(Cl)c(Cl)c2)C(=O)N2C[C@H](OC3CCCC3)C[C@H]2C(=O)NC2(CC(C)(C)C2)C(=O)N1C [PP2649]	A (a compound having 10 or more and less than 20 is denoted as A)	AA (a compound having 20 or more is denoted as AA)
CCC(CC)[C@H]1C(=O)N(C)[C@H](C(=O)N(C)C)CC(=O)N(C)[C@@H](COC)C(=O)N[C@@H]([C@@H](C)CC)C(=O)N2CCC[C@H]2C(=O)N(C)[C@H]2C/C=C\CCN(C2=O)[C@@H](Cc2ccc(C(F)(F)F)cc2)C(=O)N(C)CC(=O)N[C@@H](CCc2ccc(Cl)c(Cl)c2)C(=O)N2C[C@H](OC3CCCC3)C[C@H]2C(=O)NC2(CC(C)(C)C2)C(=O)N1C [PP2651]	A (a compound having 10 or more and less than 20 is denoted as A)	AA (a compound having 20 or more is denoted as AA)
CCC(CC)[C@H]1C(=O)N(C)[C@H](C(=O)N(C)C)CC(=O)N(C)[C@@H](COC)C(=O)N[C@@H]([C@@H](C)CC)C(=O)N2CCC[C@H]2C(=O)N(C)[C@H]2C/C=C\CCN(C2=O)[C@@H](Cc2ccc(C(F)F)cc2)C(=O)N(C)CC(=O)N[C@@H](CCc2ccc(Cl)c(Cl)c2)C(=O)N2C[C@H](OC3CCCC3)C[C@H]2C(=O)NC2(CC(C)(C)C2)C(=O)N1C [PP2652]	A (a compound having 10 or more and less than 20 is denoted as A)	AA (a compound having 20 or more is denoted as AA)
CC[C@H](C)[C@@H]1NC(=O)[C@H](COC)N(C)C(=O)C[C@@H](C(=O)N(C)C)N(C)C(=O)[C@H](C2CCCCC2)N(C)C(=O)C2(CC(C)(C)C2)NC(=O)[C@@H]2C[C@@H](OC(C)C)CN2C(=O)[C@H](CCc2cc(F)c(C(F)(F)F)c(F)c2)NC(=O)CN(C)C(=O)[C@H](Cc2ccc(C(F)(F)F)cc2)N2CC/C=C\C[C@@H](C2=O)N(C)C(=O)CN(C)C1=O [PP2654]	A (a compound having 10 or more and less than 20 is denoted as A)	A (a compound having 10 or more and less than 20 is denoted as A)
